Laboratory results as given in the METLIN SMRT retention time set (Domingo-Almenara et al. 2019).

Experiment: gradient 5% acetonitrile 3 min, to 50% in 2 min, to 85% in 15 min, held 3 min, 100 µL/min
Settings: column: Zorbax Extend-C18 2.1 x 50 mm; eluents: water / acetonitrile, 0.1% formic acid
How it was run: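 Mixtures of ~100 pure standards were chromatographed on a Zorbax Extend-C18 column (2.1 × 50 mm, 1.8 μm) at 100 μL/min using water and acetonitrile, each with 0.1% formic acid. Detection used a quadrupole time-of-flight mass spectrometer in positive and negative ionization mode, and data collection spanned 3 months. Retention time was obtained from adduct peaks picked computationally and each checked manually.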

RP-LC retention time [s] | Compound
934 | COc1ccc(-c2nc(NC3CCCCCC3)c3ccccc3n2)cc1
866 | Cc1c(F)cccc1NC(=O)NC1CCN(c2ccc(F)cc2)C1=O (stereo not given)
756 | CCc1nc(OCC(=O)NCc2ccccc2)c2ccccc2n1
809 | CC(C)n1c(=O)sc2cc(S(=O)(=O)N3CCC(C(=O)N4CCCC4)CC3)ccc21
932 | O=C(Nc1ccc2c(c1)CN(S(=O)(=O)c1ccc3c(c1)CCC3)CCO2)C1CC1
681 | CC(NC(=O)Cc1nnc(-c2cnccn2)o1)c1ccc(F)cc1 (stereo not given)
595 | O=C(CCc1c[nH]c2ccccc12)NC1CCN(c2ccc(=O)[nH]n2)C1 (stereo not given)
692 | CCC(C)NC(=O)c1nn(-c2ccc(OC)cc2)c(OC)cc1=O (stereo not given)
1120 | COc1c(C(=O)NCc2ccc(C)o2)sc2ccc(Cl)cc12
854 | COc1cccc(-c2noc(C3CCCN3C(=O)c3ccoc3)n2)c1 (stereo not given)
596 | CCOc1ccc(S(=O)(=O)Nc2ccc3nc(N4CCN(C)CC4)cc(C(=O)O)c3c2)cc1
999 | N#C/C(=C\c1cccnc1)c1ccc(Br)cc1
693 | Cc1nnc2c(=O)n(CC(=O)NCc3ccccc3Cl)c3cccnc3n12
668 | CCC1CN2C=Nc3oc(C)c(C(=O)Nc4ccccc4OC)c3C2=N1 (stereo not given)
608 | Cn1c(=O)c(=O)n(C)c2cc(N3CCCCC3)c(NC(=O)CN3CCOCC3)cc21
1220 | Cc1ccc(NC(=O)Cn2nc(N3CCCC(C)C3)c3ccccc3c2=O)cc1F (stereo not given)
1080 | CCCNC(=O)c1cc(=O)[nH]c2c(Cl)cccc12
725 | Cc1nc(-c2csc(S(=O)(=O)N3CCC(C(=O)NCC4CCCO4)CC3)c2)no1 (stereo not given)
1110 | CCCS(=O)(=O)c1nc2ccc(NS(=O)(=O)c3ccc(C(C)(C)C)cc3)cc2s1
663 | O=S(=O)(c1cccnc1)N1CC(c2nc(-c3ccncc3)no2)C1
645 | COc1ccc(Cl)c2c(=O)c3c([nH]c12)CCN(CC(=O)Nc1cccc(Cl)c1)C3
586 | COc1ccc(C)c(N2C(=O)CC(N3CCC(C(N)=O)CC3)C2=O)c1 (stereo not given)
644 | COC(=O)CNC(=O)N1CCN(c2nc3ccccc3n2Cc2ccccc2)CC1

RP-LC retention time [s] | Compound
749 | COC(=O)c1cc(-c2cccc(N)c2)nc2ccccc12
727 | COc1ccc(OCc2nc(-c3ccc4ncn(C(C)C)c4c3)no2)cc1
705 | Cc1cccc(C)c1Nc1c(-c2ccccc2O)nc2ncccn12
913 | COc1ccc(Cc2nn3c(Cc4ccc(OC)cc4)nnc3s2)cc1
1040 | CCCC(NC(=O)C1CCCN(c2ccc(=O)n(-c3ccc(C)c(Cl)c3)n2)C1)c1cccs1 (stereo not given)
641 | Cc1noc(CNC(=O)c2cc(-c3cccs3)[nH]n2)n1
743 | Cc1ccc(Nc2c(-c3ccc(N(C)C)cc3)nc3ccccn23)cc1
1090 | COc1ccc(NC(=O)N2CC3CCCN3c3ccccc32)c(OC)c1 (stereo not given)
782 | Cc1ccc(-c2nc3nc(C)cc(C)n3c2Nc2ccccc2C)cc1
1340 | COc1ccccc1Nc1nc(-c2ccc(Br)cc2)cs1
958 | CCn1c(=O)sc2cc(S(=O)(=O)N3CCC(C(=O)N(C)C4CCCCC4)CC3)ccc21
738 | Cc1cccc(N2CCN(C(=O)Cn3c(=O)c4nnc(C)n4c4ncccc43)CC2)c1
776 | O=C(c1cccc(Cl)c1)N1CCC(n2c(-c3ccoc3)nc3cccnc32)C1 (stereo not given)
846 | Cc1cc(-c2nnc(C3CCC3)o2)c(C)n1CC(=O)Nc1ccccc1
1070 | CCN(C(=O)c1cc2c(s1)N(CCOC)CCCC2)C(C)C
1330 | CCCc1ccc(S(=O)(=O)N2CCCC2c2nc(-c3cccc(C)c3)no2)cc1 (stereo not given)
673 | O=S(=O)(NCc1cccnc1)c1cc(-c2nnc(-c3ccccc3)o2)ccc1F
939 | O=C(NC1CCCCC1)N1CCC(c2noc(-c3ccccc3)n2)C1 (stereo not given)
626 | Cc1cc(N2CCN(C(=O)c3ccco3)CC2)nc(N2CCCCC2)n1
623 | CS(=O)(=O)Nc1ccc(CC(=O)NCC(F)(F)F)cc1
1030 | CCOC(=O)C1CCN(C(=O)CCc2nc(-c3ccc(N4CCCC4)cc3)no2)CC1
685 | O=C(CCC1CCN(S(=O)(=O)c2ccccc2F)CC1)NC1CCS(=O)(=O)C1 (stereo not given)
1010 | Cc1c(Cl)cccc1NC(=O)N1CCCC(C)(C(=O)NCc2ccccc2)C1 (stereo not given)

RP-LC retention time [s] | Compound
1010 | CCOc1ccc(N2C(=O)C3N=NN(Cc4nc(-c5ccccc5Br)no4)C3C2=O)cc1 (stereo not given)
709 | Cn1cnc(S(=O)(=O)N2CCC(C(=O)Nc3ccc(F)c(F)c3)CC2)c1
853 | O=C(C1CC1)N1CCc2sc(S(=O)(=O)Nc3ccc(Cl)cc3)cc2C1
783 | CC(Oc1ccccc1)C(=O)NCCCn1cccc1 (stereo not given)
549 | O=C(NC1CCN(Cc2ccccc2)CC1)c1ccccc1Cl
692 | Cc1ccc2c(=O)c(C(=O)N3CCCC3)cn(CC(=O)Nc3ccc(F)cc3F)c2n1
567 | O=C1COc2cc(S(=O)(=O)N3CCCC3C(=O)NCCN3CCCC3)c(Cl)cc2N1 (stereo not given)
684 | O=S(=O)(NCCc1c[nH]c2ncccc12)c1ccc(Br)cc1
763 | CC(C)CCNC(=O)C1(C)Cn2nc(C(=O)NCc3ccccc3F)cc2C(=O)N1C (stereo not given)
806 | O=C(CC1CCN(C(=O)Nc2ccccc2Cl)CC1)N1CCCCC1
986 | Cc1ccccc1-c1noc(Cn2nc(-c3ccccc3F)ccc2=O)n1
967 | Cc1ccccc1NS(=O)(=O)c1cc2c3c(c1)CCC(=O)N3CCC2
919 | COC(=O)c1ccc(NC(=O)N2CCCC2c2ccc(F)cc2)cc1 (stereo not given)
840 | Cc1ccc(NS(=O)(=O)c2cc3n(c2)CCN(CC(C)C)C3=O)cc1F
641 | Cc1csc(C(=O)Nc2cccc3ccc(-n4ccnc4)nc23)c1
858 | O=C(C1=CN(c2cccc(C(F)(F)F)c2)c2cc(F)ccc2S1(=O)=O)N1CCOCC1
608 | CCOCCCNC(=O)N1CCc2cc(-c3ccc(C(=O)N4CCOCC4)cc3)ccc21
720 | CCC(C)NS(=O)(=O)c1cc(-c2c(C)noc2NC(C)=O)ccc1OC (stereo not given)
1040 | CCOc1ccc(-c2ccc(=O)n(Cc3nc(-c4ccccc4)no3)n2)cc1
832 | CCOC(=O)C1C(=O)C(C(=O)OCC)C(c2ccccc2)NC1c1ccccc1 (stereo not given)
626 | Cc1ccc(NC(=O)C2CCN(S(=O)(=O)c3cn(C(C)C)cn3)CC2)nc1
628 | Cc1cnc(C(=O)N2CCC(c3noc(-c4ccccn4)n3)C2)cn1 (stereo not given)
700 | COc1ccccc1CCNC(=O)Cc1csc(NC(=O)c2ccco2)n1

RP-LC retention time [s] | Compound
556 | CC(=O)N1C[C@@H]2CCCN3CCC[C@@H]([C@H]23)[C@H]1CCCC(=O)N(C)CCc1c(C)nn(C)c1C
917 | COC(=O)C1=C(C)N(C(C)C)C(=O)C1(NC(=O)c1cccc(OC)c1)C(F)(F)F (stereo not given)
750 | O=C(Nc1nnc(C2CC(=O)N(c3ccc(F)cc3)C2)o1)c1cccc(Cl)c1 (stereo not given)
629 | COc1cc2c(cc1CNC(=O)Cn1cnc3cc4c(cc31)OCCO4)OCCCO2
905 | Cc1cc(-c2nnc(-c3ccc(F)cc3)o2)c(C)n1CC(=O)NCc1cccs1
647 | CCc1noc(C2CCCCN2C(=O)c2c[nH]c3ccccc23)n1 (stereo not given)
760 | O=C(NCCc1csc(C2CCCN(C(=O)C3CCCCC3)C2)n1)C1CC1 (stereo not given)
658 | CCOc1ccc(CNC(=O)c2cnc(N3CCN(C4CCCCC4)CC3)nc2N)cc1
917 | O=C(NCCc1csc(-c2cccc(F)c2)n1)c1ccc([N+](=O)[O-])cc1Cl
782 | CCOc1ccc(CC(=O)N2C[C@@H]3C[C@H]2C[C@@H]3NC(=O)c2cccs2)cc1
575 | CCC1CN2C=NC(N3CCN(C(=O)c4ccoc4)CC3)=CC2=N1 (stereo not given)
827 | Cc1nc(-c2ccccc2F)sc1C(=O)NC1CC1
681 | O=C(COc1cccc(Cl)c1)N1CCN(c2nc(CN3CCCCC3)cs2)CC1
964 | Cc1cc(NC(=O)CN2CCc3ccccc3C2C(=O)N2CCCCC2)ccc1F (stereo not given)
748 | CCCNC(=O)C1CCCN(c2ccc(SCC(=O)Nc3cc(F)ccc3Cl)nn2)C1 (stereo not given)
1200 | Cc1ccc(CNC(=O)c2cc3sccc3n2Cc2ccc(Cl)cc2)cc1
1070 | Cc1oc(C2CCN(S(=O)(=O)c3ccc(C(C)C)cc3)CC2)nc1C(=O)N1CCCC1
740 | COc1ccc(NS(=O)(=O)c2cn(C)c3ncccc23)cc1
960 | COCc1cc(=O)n(CC(=O)Nc2ccc(C(C)C)cc2)c(N2CCOCC2)n1
633 | O=C(CN1C(=O)NC2(CCCCC2)C1=O)Nc1cccc(F)c1

Compound | RP-LC retention time [s]
O=C(COc1ccccc1)N1CCN(Cc2noc3ccccc23)CC1 | 708
